Holding throughout (format): functional
The test system of assay [1] is Pseudomonas aeruginosa. The assay can be described thus: Antimicrobial activity against Pseudomonas aeruginosa isolate 1006 by broth microdilution method.
Assay [2] deals with Pseudomonas aeruginosa. Nature of the assay: Antimicrobial activity against Pseudomonas aeruginosa isolate 1050 by broth microdilution method.
The subject of assay [3] is Pseudomonas aeruginosa. The assay can be described thus: Antimicrobial activity against Pseudomonas aeruginosa isolate 913 by broth microdilution method.
Assay [4] concerns Pseudomonas aeruginosa. Nature of the assay: Antimicrobial activity against Pseudomonas aeruginosa isolate 927 by broth microdilution method.
Assay [5] has as its system Pseudomonas aeruginosa. Nature of the assay: Antimicrobial activity against Pseudomonas aeruginosa isolate 821 by broth microdilution method.
In assay [6] the test system is Pseudomonas aeruginosa. The assay can be described thus: Antimicrobial activity against Pseudomonas aeruginosa isolate 1036 by broth microdilution method.
In assay [7] the test system is Pseudomonas aeruginosa. Nature of the assay: Antimicrobial activity against Pseudomonas aeruginosa isolate 22 by broth microdilution method.
Assay [8] deals with Pseudomonas aeruginosa. The assay can be described thus: Antimicrobial activity against Pseudomonas aeruginosa isolate 1093 by broth microdilution method.
Assay [9] relates to Pseudomonas aeruginosa. The assay can be described thus: Antimicrobial activity against Pseudomonas aeruginosa isolate 856 by broth microdilution method.
Assay [10] relates to Pseudomonas aeruginosa. Nature of the assay: Antimicrobial activity against Pseudomonas aeruginosa isolate 1060 by broth microdilution method.
Assay [11] deals with Pseudomonas aeruginosa. The assay can be described thus: Antimicrobial activity against Pseudomonas aeruginosa isolate 988 by broth microdilution method.
For assay [12], the system named is Pseudomonas aeruginosa. Nature of the assay: Antimicrobial activity against Pseudomonas aeruginosa isolate 896 by broth microdilution method.
Assay [13] concerns Pseudomonas aeruginosa. The assay can be described thus: Antimicrobial activity against Pseudomonas aeruginosa isolate 878 by broth microdilution method.
Assay [14] relates to Pseudomonas aeruginosa. The assay can be described thus: Antimicrobial activity against Pseudomonas aeruginosa isolate 968 by broth microdilution method.
Assay [15] concerns Pseudomonas aeruginosa. The assay can be described thus: Antimicrobial activity against Pseudomonas aeruginosa isolate 971 by broth microdilution method.
Assay [16] deals with Pseudomonas aeruginosa. The assay can be described thus: Antimicrobial activity against Pseudomonas aeruginosa isolate 944 by broth microdilution method.
Assay [17] relates to Pseudomonas aeruginosa. Nature of the assay: Antimicrobial activity against Pseudomonas aeruginosa isolate 1080 by broth microdilution method.
The subject of assay [18] is Pseudomonas aeruginosa. Nature of the assay: Antimicrobial activity against Pseudomonas aeruginosa isolate 1095 by broth microdilution method.
Assay [19] has as its system Pseudomonas aeruginosa. The assay can be described thus: Antimicrobial activity against Pseudomonas aeruginosa isolate 1006 by broth microdilution method in presence of beta-lactamase inhibitor Tazobactam.
The subject of assay [20] is Pseudomonas aeruginosa. Nature of the assay: Antimicrobial activity against Pseudomonas aeruginosa isolate 913 by broth microdilution method in presence of beta-lactamase inhibitor Tazobactam.
Assay [21] relates to Pseudomonas aeruginosa. The assay can be described thus: Antimicrobial activity against Pseudomonas aeruginosa isolate 896 by broth microdilution method in presence of beta-lactamase inhibitor Tazobactam.
The test system of assay [22] is Pseudomonas aeruginosa. Nature of the assay: Antimicrobial activity against Pseudomonas aeruginosa isolate 1080 by broth microdilution method in presence of beta-lactamase inhibitor Tazobactam.
The test system of assay [23] is Pseudomonas aeruginosa. The assay can be described thus: Antimicrobial activity against Pseudomonas aeruginosa isolate 971 by broth microdilution method in presence of beta-lactamase inhibitor Tazobactam.
For assay [24], the system named is Pseudomonas aeruginosa. The assay can be described thus: Antimicrobial activity against Pseudomonas aeruginosa isolate 22 by broth microdilution method in presence of beta-lactamase inhibitor Tazobactam.
Assay [25] relates to Pseudomonas aeruginosa. The assay can be described thus: Antimicrobial activity against Pseudomonas aeruginosa isolate 1036 by broth microdilution method in presence of beta-lactamase inhibitor Tazobactam.
The test system of assay [26] is Pseudomonas aeruginosa. Nature of the assay: Antimicrobial activity against Pseudomonas aeruginosa isolate 1095 by broth microdilution method in presence of beta-lactamase inhibitor Tazobactam.
In assay [27] the test system is Pseudomonas aeruginosa. The assay can be described thus: Antimicrobial activity against Pseudomonas aeruginosa isolate 821 by broth microdilution method in presence of beta-lactamase inhibitor Tazobactam.
Assay [28] relates to Pseudomonas aeruginosa. Nature of the assay: Antimicrobial activity against Pseudomonas aeruginosa isolate 968 by broth microdilution method in presence of beta-lactamase inhibitor Tazobactam.
The subject of assay [29] is Pseudomonas aeruginosa. Nature of the assay: Antimicrobial activity against Pseudomonas aeruginosa isolate 944 by broth microdilution method in presence of beta-lactamase inhibitor Tazobactam.
Assay [30] concerns Pseudomonas aeruginosa. The assay can be described thus: Antimicrobial activity against Pseudomonas aeruginosa isolate 856 by broth microdilution method in presence of beta-lactamase inhibitor Tazobactam.
The subject of assay [31] is Pseudomonas aeruginosa. The assay can be described thus: Antimicrobial activity against Pseudomonas aeruginosa isolate 988 by broth microdilution method in presence of beta-lactamase inhibitor Tazobactam.
Assay [32] deals with Pseudomonas aeruginosa. The assay can be described thus: Antimicrobial activity against Pseudomonas aeruginosa isolate 1093 by broth microdilution method in presence of beta-lactamase inhibitor Tazobactam.
Assay [33] relates to Pseudomonas aeruginosa. Nature of the assay: Antimicrobial activity against Pseudomonas aeruginosa isolate 878 by broth microdilution method in presence of beta-lactamase inhibitor Tazobactam.
Assay [34] concerns Pseudomonas aeruginosa. The assay can be described thus: Antimicrobial activity against Pseudomonas aeruginosa isolate 1060 by broth microdilution method in presence of beta-lactamase inhibitor Tazobactam.
Assay [35] has as its system Pseudomonas aeruginosa. The assay can be described thus: Antimicrobial activity against Pseudomonas aeruginosa isolate 927 by broth microdilution method in presence of beta-lactamase inhibitor Tazobactam.
In assay [36] the test system is Pseudomonas aeruginosa. Nature of the assay: Antimicrobial activity against Pseudomonas aeruginosa isolate 1050 by broth microdilution method in presence of beta-lactamase inhibitor Tazobactam.

In brackets after ≈: the same amount, converted by molar mass. Where only a bound is given, the exact number is not on record here.

Consider `CO/N=C(\C(=O)N[C@@H]1C(=O)N2C(C(=O)[O-])=C(C[N+]3(C)CCCC3)CS[C@H]12)c1csc(N)n1` [CEFEPIME], for which the minimal inhibitory concentration (MIC) was 4 µg/mL (≈ 8.32 µM) in the assay on Pseudomonas aeruginosa [1]; 4 µg/mL (≈ 8.32 µM) in the assay on Pseudomonas aeruginosa [2]; 12 µg/mL (≈ 25 µM) in the assay on Pseudomonas aeruginosa [3]; 24 µg/mL (≈ 49.9 µM) against Pseudomonas aeruginosa [4]; > 256 µg/mL in the assay with Pseudomonas aeruginosa [5]; 12 µg/mL (≈ 25 µM) with Pseudomonas aeruginosa [6]. The MIC against Pseudomonas aeruginosa [7] was 16 µg/mL (≈ 33.3 µM); in the assay on Pseudomonas aeruginosa [8] it was 64 µg/mL (≈ 133 µM); in the assay with Pseudomonas aeruginosa [9] it was > 256 µg/mL; with Pseudomonas aeruginosa [10] it was 2 µg/mL (≈ 4.16 µM); in the assay with Pseudomonas aeruginosa [11], 12 µg/mL (≈ 25 µM); in the assay with Pseudomonas aeruginosa [12], 12 µg/mL (≈ 25 µM). Also, the minimum inhibitory concentration (MIC) with Pseudomonas aeruginosa [13] worked out at 24 µg/mL (≈ 49.9 µM); against Pseudomonas aeruginosa [14], 32 µg/mL (≈ 66.6 µM); in the assay with Pseudomonas aeruginosa [15] it was 32 µg/mL (≈ 66.6 µM); in the assay on Pseudomonas aeruginosa [16], 16 µg/mL (≈ 33.3 µM); in the assay on Pseudomonas aeruginosa [17] it was 64 µg/mL (≈ 133 µM).

In the case of `CC(C)(O/N=C(\C(=O)N[C@@H]1C(=O)N2C(C(=O)[O-])=C(C[n+]3ccccc3)CS[C@H]12)c1csc(N)n1)C(=O)O` [CEFTAZIDIME], the MIC in the assay on Pseudomonas aeruginosa [1] turned out to be 4 µg/mL (≈ 7.32 µM); with Pseudomonas aeruginosa [2], 3 µg/mL (≈ 5.49 µM); in the assay on Pseudomonas aeruginosa [18], 16 µg/mL (≈ 29.3 µM); against Pseudomonas aeruginosa [3], 24 µg/mL (≈ 43.9 µM); with Pseudomonas aeruginosa [4], 8 µg/mL (≈ 14.6 µM); with Pseudomonas aeruginosa [5] it was 64 µg/mL (≈ 117 µM). The minimum inhibitory concentration (MIC) in the assay on Pseudomonas aeruginosa [6] is 2 µg/mL (≈ 3.66 µM); with Pseudomonas aeruginosa [7], 16 µg/mL (≈ 29.3 µM); in the assay on Pseudomonas aeruginosa [8], 4 µg/mL (≈ 7.32 µM); against Pseudomonas aeruginosa [9], > 256 µg/mL; with Pseudomonas aeruginosa [10], 2 µg/mL (≈ 3.66 µM); in the assay with Pseudomonas aeruginosa [11], 6 µg/mL (≈ 11 µM). The MIC in the assay on Pseudomonas aeruginosa [12] came out at 12 µg/mL (≈ 22 µM); against Pseudomonas aeruginosa [13] it was 12 µg/mL (≈ 22 µM); against Pseudomonas aeruginosa [14], 24 µg/mL (≈ 43.9 µM); against Pseudomonas aeruginosa [15], 48 µg/mL (≈ 87.8 µM); in the assay on Pseudomonas aeruginosa [16] it was 4 µg/mL (≈ 7.32 µM); against Pseudomonas aeruginosa [17], 16 µg/mL (≈ 29.3 µM).

Consider `C[C@@H](O)[C@H]1C(=O)N2C(C(=O)O)=C(S[C@@H]3CN[C@H](C(=O)N(C)C)C3)[C@H](C)[C@H]12` [MEROPENEM], for which the MIC in the assay with Pseudomonas aeruginosa [1] was ≥ 32 µg/mL; with Pseudomonas aeruginosa [2] it was ≥ 32 µg/mL; with Pseudomonas aeruginosa [18], 4 µg/mL (≈ 10.4 µM); against Pseudomonas aeruginosa [3] it was ≥ 32 µg/mL; against Pseudomonas aeruginosa [4], ≥ 32 µg/mL; in the assay with Pseudomonas aeruginosa [5], ≥ 32 µg/mL. The minimum inhibitory concentration (MIC) is 4 µg/mL (≈ 10.4 µM) in the assay with Pseudomonas aeruginosa [6]; 16 µg/mL (≈ 41.7 µM) against Pseudomonas aeruginosa [7]; ≥ 32 µg/mL in the assay on Pseudomonas aeruginosa [8]; ≥ 32 µg/mL against Pseudomonas aeruginosa [9]; 4 µg/mL (≈ 10.4 µM) against Pseudomonas aeruginosa [10]; 16 µg/mL (≈ 41.7 µM) in the assay on Pseudomonas aeruginosa [11]. Besides, the MIC was 12 µg/mL (≈ 31.3 µM) against Pseudomonas aeruginosa [12]; ≥ 32 µg/mL against Pseudomonas aeruginosa [13]; ≥ 32 µg/mL against Pseudomonas aeruginosa [14]; ≥ 32 µg/mL against Pseudomonas aeruginosa [15]; 12 µg/mL (≈ 31.3 µM) with Pseudomonas aeruginosa [16]; ≥ 32 µg/mL in the assay with Pseudomonas aeruginosa [17].

`CCN1CCN(C(=O)N[C@@H](C(=O)N[C@@H]2C(=O)N3[C@@H]2SC(C)(C)[C@@H]3C(=O)O)c2ccccc2)C(=O)C1=O` [PIPERACILLIN]: the minimal inhibitory concentration (MIC) was 16 µg/mL with Pseudomonas aeruginosa [19]; ≥ 256 µg/mL with Pseudomonas aeruginosa [20]; ≥ 256 µg/mL in the assay with Pseudomonas aeruginosa [21]; 16 µg/mL in the assay with Pseudomonas aeruginosa [22]; ≥ 256 µg/mL in the assay with Pseudomonas aeruginosa [23]; 32 µg/mL in the assay on Pseudomonas aeruginosa [24]. Also, the minimal inhibitory concentration (MIC) with Pseudomonas aeruginosa [25] is 3 µg/mL; in the assay on Pseudomonas aeruginosa [26], 12 µg/mL; in the assay on Pseudomonas aeruginosa [27], 64 µg/mL; in the assay on Pseudomonas aeruginosa [28], 16 µg/mL; with Pseudomonas aeruginosa [29], 8 µg/mL; in the assay on Pseudomonas aeruginosa [30], ≥ 256 µg/mL. Further, the minimal inhibitory concentration (MIC) in the assay with Pseudomonas aeruginosa [31] is 64 µg/mL; in the assay on Pseudomonas aeruginosa [32], 6 µg/mL; in the assay with Pseudomonas aeruginosa [33], ≥ 256 µg/mL; in the assay with Pseudomonas aeruginosa [34], 4 µg/mL; in the assay with Pseudomonas aeruginosa [35], 32 µg/mL; in the assay with Pseudomonas aeruginosa [36] it was 8 µg/mL.

As to `O=C(O)c1cn(C2CC2)c2cc(N3CCNCC3)c(F)cc2c1=O` [CIPROFLOXACIN], the minimal inhibitory concentration (MIC) in the assay with Pseudomonas aeruginosa [2] was > 32 µg/mL; against Pseudomonas aeruginosa [4] it was > 32 µg/mL; in the assay on Pseudomonas aeruginosa [5], > 32 µg/mL; against Pseudomonas aeruginosa [6] it was 3 µg/mL (≈ 9.05 µM); in the assay on Pseudomonas aeruginosa [8] it was > 32 µg/mL; against Pseudomonas aeruginosa [9], > 32 µg/mL. For the same molecule, the MIC was 4 µg/mL (≈ 12.1 µM) in the assay with Pseudomonas aeruginosa [11]; > 32 µg/mL in the assay on Pseudomonas aeruginosa [13]; > 32 µg/mL in the assay on Pseudomonas aeruginosa [14]; > 32 µg/mL against Pseudomonas aeruginosa [15]; 4 µg/mL (≈ 12.1 µM) with Pseudomonas aeruginosa [16]; > 32 µg/mL in the assay on Pseudomonas aeruginosa [17].

As for `NC[C@H]1O[C@H](O[C@H]2[C@H](O)[C@@H](O[C@H]3O[C@H](CO)[C@@H](O)[C@H](N)[C@H]3O)[C@H](N)C[C@@H]2N)[C@H](N)C[C@@H]1O` [TOBRAMYCIN], the MIC in the assay on Pseudomonas aeruginosa [1] worked out at 3 µg/mL (≈ 6.42 µM); in the assay on Pseudomonas aeruginosa [2], 16 µg/mL (≈ 34.2 µM); against Pseudomonas aeruginosa [18], 2 µg/mL (≈ 4.28 µM); in the assay on Pseudomonas aeruginosa [3] it was 96 µg/mL (≈ 205 µM); in the assay with Pseudomonas aeruginosa [4], 3 µg/mL (≈ 6.42 µM); against Pseudomonas aeruginosa [5], 3 µg/mL (≈ 6.42 µM). Also, the MIC came to 0.125 µg/mL (≈ 0.267 µM) in the assay on Pseudomonas aeruginosa [6]; 0.5 µg/mL (≈ 1.07 µM) against Pseudomonas aeruginosa [7]; 2 µg/mL (≈ 4.28 µM) in the assay on Pseudomonas aeruginosa [8]; 32 µg/mL (≈ 68.4 µM) in the assay on Pseudomonas aeruginosa [9]; 0.75 µg/mL (≈ 1.6 µM) against Pseudomonas aeruginosa [10]; 64 µg/mL (≈ 137 µM) in the assay with Pseudomonas aeruginosa [11]. The minimal inhibitory concentration (MIC) against Pseudomonas aeruginosa [12] worked out at 24 µg/mL (≈ 51.3 µM); in the assay with Pseudomonas aeruginosa [13] it was 1.5 µg/mL (≈ 3.21 µM); against Pseudomonas aeruginosa [14] it was 96 µg/mL (≈ 205 µM); in the assay with Pseudomonas aeruginosa [15], 1.5 µg/mL (≈ 3.21 µM); with Pseudomonas aeruginosa [16], 96 µg/mL (≈ 205 µM); in the assay on Pseudomonas aeruginosa [17] it was 3 µg/mL (≈ 6.42 µM).

The values above are taken from ChEMBL document CHEMBL1649285, “In vivo efficacy of 1- and 2-gram human simulated prolonged infusions of doripenem against Pseudomonas aeruginosa” (Antimicrob Agents Chemother, 2009).
